From the NIST ThermoML archive (doi:10.1021/acs.jced.6b00575)
Numbers after ± are expanded uncertainties.

Conditions: 101.33 kPa, Liquid; for electrical conductivity: Alternating current cell with electrodes; for viscosity: Concentric cylinders viscometry; for mass density: Vibrating tube method

SMILES | viscosity (313.15 K) | mass density (313.15 K) | viscosity (323.15 K) | mass density (323.15 K) | viscosity (333.15 K) | mass density (333.15 K) | viscosity (343.15 K) | mass density (343.15 K) | viscosity (353.15 K) | mass density (353.15 K) | viscosity (363.15 K) | mass density (363.15 K) | viscosity (273.15 K) | mass density (273.15 K) | viscosity (278.15 K) | mass density (278.15 K) | viscosity (283.15 K) | mass density (283.15 K) | viscosity (288.15 K) | mass density (288.15 K) | further results
CC(=O)[NH+](C)C.O=S(=O)([N-]S(=O)(=O)C(F)(F)F)C(F)(F)F [N,N-dimethylacetamidium bis(trifluoromethanesulfonyl)amide] | 67.83 ± 1.4 mPa·s | 1549.8 ± 1.7 kg/m3 | 44.71 ± 0.93 mPa·s | 1539.4 ± 1.7 kg/m3 | 31.31 ± 0.65 mPa·s | 1529.1 ± 1.7 kg/m3 | 22.85 ± 0.48 mPa·s | 1518.6 ± 1.6 kg/m3 | 17.35 ± 0.36 mPa·s | 1508.1 ± 1.6 kg/m3 | 13.51 ± 0.28 mPa·s | 1497.8 ± 1.6 kg/m3 | – | – | – | – | – | – | – | – | electrical conductivity (313.15 K): 0.403 ± 0.008 S/m; electrical conductivity (323.15 K): 0.574 ± 0.011 S/m; electrical conductivity (333.15 K): 0.782 ± 0.016 S/m; electrical conductivity (343.15 K): 1.02 ± 0.02 S/m; electrical conductivity (353.15 K): 1.29 ± 0.026 S/m
CN(C)C=O [dimethylformamide] | 0.684 ± 0.015 mPa·s | 929.5 ± 0.13 kg/m3 | 0.615 ± 0.013 mPa·s | 919.86 ± 0.14 kg/m3 | 0.535 ± 0.012 mPa·s | 910.17 ± 0.14 kg/m3 | 0.484 ± 0.011 mPa·s | 900.41 ± 0.14 kg/m3 | 0.436 ± 0.01 mPa·s | 890.57 ± 0.15 kg/m3 | 0.398 ± 0.009 mPa·s | 880.65 ± 0.15 kg/m3 | 1.14 ± 0.02 mPa·s | 967.56 ± 0.12 kg/m3 | 1.06 ± 0.02 mPa·s | 962.83 ± 0.12 kg/m3 | 0.979 ± 0.021 mPa·s | 958.1 ± 0.12 kg/m3 | 0.891 ± 0.019 mPa·s | 953.37 ± 0.12 kg/m3 | viscosity (293.15 K): 0.845 ± 0.018 mPa·s; mass density (293.15 K): 948.61 ± 0.12 kg/m3; viscosity (298.15 K): 0.81 ± 0.017 mPa·s; mass density (298.15 K): 943.85 ± 0.13 kg/m3; viscosity (303.15 K): 0.765 ± 0.016 mPa·s; mass density (303.15 K): 939.07 ± 0.13 kg/m3
CC(=O)N(C)C [N,N-dimethylethanamide] | 0.772 ± 0.017 mPa·s | 922.26 ± 0.95 kg/m3 | 0.692 ± 0.015 mPa·s | 912.99 ± 0.94 kg/m3 | 0.614 ± 0.014 mPa·s | 903.68 ± 0.93 kg/m3 | 0.553 ± 0.013 mPa·s | 894.31 ± 0.92 kg/m3 | 0.502 ± 0.011 mPa·s | 884.9 ± 0.91 kg/m3 | 0.459 ± 0.011 mPa·s | 875.43 ± 0.9 kg/m3 | 1.41 ± 0.03 mPa·s | 959.16 ± 0.98 kg/m3 | 1.29 ± 0.03 mPa·s | 954.56 ± 0.98 kg/m3 | 1.19 ± 0.03 mPa·s | 949.95 ± 0.97 kg/m3 | 1.09 ± 0.02 mPa·s | 945.35 ± 0.97 kg/m3 | viscosity (293.15 K): 1 ± 0.02 mPa·s; mass density (293.15 K): 940.74 ± 0.96 kg/m3; viscosity (298.15 K): 0.946 ± 0.02 mPa·s; mass density (298.15 K): 936.13 ± 0.96 kg/m3; viscosity (303.15 K): 0.883 ± 0.019 mPa·s; mass density (303.15 K): 931.51 ± 0.96 kg/m3
CCC(=O)N(C)C [N,N-dimethylpropionamide] | 0.778 ± 0.018 mPa·s | 907.04 ± 3.7 kg/m3 | 0.696 ± 0.017 mPa·s | 898.13 ± 3.6 kg/m3 | 0.618 ± 0.015 mPa·s | 889.17 ± 3.6 kg/m3 | 0.556 ± 0.013 mPa·s | 880.17 ± 3.6 kg/m3 | 0.504 ± 0.012 mPa·s | 871.11 ± 3.5 kg/m3 | 0.46 ± 0.011 mPa·s | 861.99 ± 3.5 kg/m3 | 1.44 ± 0.03 mPa·s | 942.45 ± 3.8 kg/m3 | 1.32 ± 0.03 mPa·s | 938.02 ± 3.8 kg/m3 | 1.21 ± 0.03 mPa·s | 933.6 ± 3.8 kg/m3 | 1.11 ± 0.03 mPa·s | 929.18 ± 3.8 kg/m3 | viscosity (293.15 K): 1.02 ± 0.02 mPa·s; mass density (293.15 K): 924.75 ± 3.8 kg/m3; viscosity (298.15 K): 0.958 ± 0.022 mPa·s; mass density (298.15 K): 920.32 ± 3.7 kg/m3; viscosity (303.15 K): 0.892 ± 0.021 mPa·s; mass density (303.15 K): 915.93 ± 3.7 kg/m3
CCC(=O)[NH+](C)C.O=S(=O)([N-]S(=O)(=O)C(F)(F)F)C(F)(F)F | 57.92 ± 1.2 mPa·s | 1504.73 ± 1.6 kg/m3 | 39.33 ± 0.82 mPa·s | 1494.43 ± 1.6 kg/m3 | 27.84 ± 0.58 mPa·s | 1484.21 ± 1.6 kg/m3 | 20.58 ± 0.43 mPa·s | 1474.06 ± 1.6 kg/m3 | 15.67 ± 0.33 mPa·s | 1463.98 ± 1.6 kg/m3 | 12.28 ± 0.26 mPa·s | 1453.97 ± 1.6 kg/m3 | 583.6 ± 21 mPa·s | 1546.8 ± 1.7 kg/m3 | 401.3 ± 13 mPa·s | 1541.52 ± 1.7 kg/m3 | 284.2 ± 8.5 mPa·s | 1536.2 ± 1.7 kg/m3 | 207.2 ± 5.6 mPa·s | 1530.91 ± 1.7 kg/m3 | electrical conductivity (273.15 K): 0.053 ± 0.001 S/m; electrical conductivity (278.15 K): 0.075 ± 0.002 S/m; electrical conductivity (283.15 K): 0.103 ± 0.002 S/m; electrical conductivity (288.15 K): 0.136 ± 0.003 S/m; electrical conductivity (293.15 K): 0.177 ± 0.004 S/m; viscosity (293.15 K): 154.9 ± 3.9 mPa·s; mass density (293.15 K): 1525.62 ± 1.6 kg/m3; electrical conductivity (298.15 K): 0.225 ± 0.005 S/m; viscosity (298.15 K): 117.7 ± 2.7 mPa·s; mass density (298.15 K): 1520.35 ± 1.6 kg/m3; electrical conductivity (303.15 K): 0.28 ± 0.006 S/m; viscosity (303.15 K): 91.33 ± 2 mPa·s; mass density (303.15 K): 1515.12 ± 1.6 kg/m3; electrical conductivity (313.15 K): 0.415 ± 0.008 S/m; electrical conductivity (323.15 K): 0.585 ± 0.012 S/m; electrical conductivity (333.15 K): 0.787 ± 0.016 S/m; electrical conductivity (343.15 K): 1.01 ± 0.02 S/m; electrical conductivity (353.15 K): 1.28 ± 0.026 S/m
